Reference: US6589762B1, “Calcafluor screen for chitin biosynthesis inhibitors” (priority 1993, dated 2003)

Tests used:
Aspergillus nidulans = experiment: Calcofluor rescue with filamentous fungus instead of S. cerevisiae; type: cell-based; conditions: very high calcofluor concentrations
Description: (§1) Attempts are made to replace S. cerevisiae with several species of filamentous fungi, including Neurospora crassa, Aspergillus nidulans, Botrytis cinerea, Pseudocercosporella herpotrichoides, but all the species respond differently from S. cerevisiae. N. crassa and A. nidulans require very high concentrations of calcofluor to inhibit growth.

Neurospora crassa = experiment: as above; type: cell-based; conditions: very high calcofluor concentrations
Description: as §1

Botrytis cinerea = experiment: as above; type: cell-based; conditions: does not grow in the media
Description: as §1

[1] = tested on: Pseudocercosporella herpotrichoides; experiment: as above; type: cell-based; conditions: does not grow in the media
Description: as §1

A.T.C.C. strain S288c = experiment: Comparison growth inhibition screen with strain S288c; type: cell-based, Saccharomyces cerevisiae; conditions: same conditions at the same levels as Table III
Chs3 = molecular target: T1, Chs3 (Saccharomyces cerevisiae, UniProt P29465); experiment: In vitro chitin synthase enzyme assay (incorporation of UDP-14C-N-acetylglucosamine); type: biochemical
T1 construct: To assay Chs3 activity, membranes from cells lacking Chs1 and, preferably, Chs2 are prepared; endogenous in cells; host or cells: S. cerevisiae strains ECY36-3C, JW17-11/1A/FOA or SSY640-10A (crude membrane fraction)
Description: In Vitro Secondary Screens. These enzyme assays detect inhibition of individual chitin synthase isozymes Chs1, Chs2, and Chs3 by monitoring the incorporation of radioactive chitin precursor uridine diphospho-N-acetyl glucosamine into acid precipitable counts (i.e., chitin).
To assay Chs3 activity, membranes from cells lacking Chs1 and, preferably, Chs2 are prepared by a modification of the method of Orlean, P. cited above. Strain ECY36-3C, JW17-11/1A/FOA or SSY640-10A are inoculated into YEPD, and the culture is shaken at 30° C. Cells are harvested while still growing exponentially, e.g., at O.D.600 of ˜0.4 as measured in a Guilford Response™ spectrophotometer, washed once in 50 mM Tris-HCl, pH 7.5, containing 0.01 mM EDTA and 1 mM DTT (1,4-dithiothreitol), and resuspended in about 3 volumes of this buffer. Glass beads of about 200 to 300 micron diameter are added to just below the meniscus of the suspension, and cells are shaken by vortexing or in a Bead-Beater™ until lysis occurs, which is monitored microscopically. During this procedure, the cell suspension is kept below 10° C. by cooling in ice. The extract is collected, the glass beads are washed with the same buffer, and the wash is added to the extract. The volume is adjusted to about 20 original volumes with the same buffer.
The cell walls and debris are removed by a 10 minute centrifugation at about 3000×g. The samples are centriuged at 100,000×g for 40 minutes at 4° C. The membrane pellets are resuspended in about one original volume 50 mM Tris-HCl, pH 7.5 containing 0.01 mM EDTA which may contain 33% glycerol, and subjected to Dounce homogenization.
Ten μl of membranes are incubated with shaking in the presence of putative inhibitors in a standard 50 μl assay mixture containing 1 mM uridine diphospho-(^14C)-N-acetyl-glucosamine (400,000 cpm/μmole), 40 mM N-acetylglucosamine, 50 mM Tris-HCl, pH 7.5, and 5 mM MgCl2 at 25° C. The reaction is stopped after 90 minutes by addition of 10% trichloroacetic acid, and the amount of product quantified by filtration and scintillation counting.

[2] = tested on: Saccharomyces cerevisiae strain Y294; experiment: Calcofluor rescue screen (disk or well diffusion); type: cell-based; conditions: for activity in the calcofluor rescue screen (turbid zone of growth): disk diffusion assay, 20 μg/disk, 30° C., two days
Description: A preferred method comprises adding a test sample to a Saccharomyces cerevisiae culture containing calcofluor white or a calcofluor white derivative. The test sample is introduced to a disk or a well on a culture plate in a standard diffusion assay using solidified media, or introduced into one of a series of equivalent tissue culture tubes or bottles in a standard turbidity assay using liquid media. The culture is incubated for such time under such conditions sufficient to observe yeast cell growth inhibition in a corresponding culture or culture plate area containing calcofluor white but no test sample. The extent of growth of the culture containing or surrounding the test sample is compared with the extent of growth in the culture or culture area containing no test sample. The presence of chitin synthesis inhibition is determined by observing whether growth in the presence of test sample exceeds growth in its absence. In a culture plate, this is a turbid zone of growth surrounding the test sample. In a culture tube series, this is enhanced turbidity.
autoclaving at 20 lbs for 15 min. Strain Y294 having genotype MATα leu2-3,112 ura3-52 his3Δ trp1 GAL+[CIR+] inoculated into this liquid media and grown overnight, an OD600 of ˜5 or greater, while being shaken at 30° C.
The plates are poured and test samples are placed on the plates. A ¼″ disk containing […] of nikkomycin Z is used as a positive control. The plates are incubated at 30° C. for two days and then examined for activity. Actives produce a turbid zone surrounding the test sample.
All compounds are tested by disk diffusion assay using the method of this invention at a rate of 20 μg/disk.

[3] = tested on: strain SSY638-3B (containing only Chs2); experiment: In vivo secondary screen, growth of chitin synthase mutant yeast; type: cell-based, Saccharomyces cerevisiae
Description: (§2) Especially preferred in vivo secondary screens employ a pair of genetically related strains, one producing one isozyme, e.g., Chs2, and the other producing a different isozyme, e.g., Chs3. Using pairs allows for the simultaneous determination that culture conditions are appropriate for growth in the absence of inhibition and the identification of which isozyme may be affected by inhibition. The pairs, for example, include the ECY36-3C and ECY36-3D strains described by Shaw, cited above, that produce only Chs3 and Chs 2, respectively, and similar pairs such as SSY640-10A (containing only Chs3) and SSY-638-3B (containing only Chs 2) described in the Examples below. […] In a similar manner, a comparison of differential effects observed in the growth of strain pairs in the presence of a test sample allows for the putative identification of which isozyme is affected by the sample.
(§3) In Vivo Secondary Screens. The in vivo calcofluor rescue secondary screens assay the differential effect of compounds on the growth of two pairs of yeast strains. Each strain in the pairs, denoted ECY36-3C and ECY36-3D and SSY640-10A and SSY638-3B, is a chitin synthase mutant that relies on the expression of a single chitin synthase isozyme for its survival.
(§4) Strain SSY640-10A has genotype chs1::HIS3, chs2::TRP1, his3, trp1, ade2, ade3, leu2, lys2, ura3 (possible cmk1Δ 1::HIS3). […]

[4] = tested on: strain SSY640-10A (containing only Chs3); experiment: as above; type: cell-based, Saccharomyces cerevisiae
Description: as §2, §3, §4

[5] = tested on: strain ECY36-3C (relies on chitin synthase isozyme 3); experiment: as above; type: cell-based, Saccharomyces cerevisiae; conditions: for growth of strain ECY36-3C (in words): strain producing only Chs3
Description: (§5) One type of calcofluor rescue secondary screen is an in vivo test that assays the effect of compounds on the growth of chitin synthase mutant yeast strains that rely on a single chitin synthase isozyme for survival. A number of these strains have been described, such as the strains that rely on chitin synthase isozymes 2 or 3 described by Shaw, J. A., et al. (J. Cell Biol. 114: 111-123 (1991)) and similar strains described in the Examples section below. In this type of secondary screening test, the test sample added to and incubated in a culture of a mutant yeast strain producing only chitin synthase 2 or 3 (denoted, respectively, Chs2 and Chs3) for such time under such conditions sufficient to observe growth in a corresponding culture containing no test sample. A comparison of the extent of growth in the culture containing test sample with growth in its absence is then made. Inhibition of growth in the presence of test sample indicates inhibition of synthase isozyme produced by the strain. Any type of growth assessment may be employed but, as in the primary calcofluor rescue screen, preferred cultures in the secondary screen are solid, with test samples applied to a disk or well, so that cell growth can be easily determined by visual inspection.
as §2, §3
(§6) Strains ECY36-3C and ECY36-3D are described by Shaw, J. A., et al., cited above. ECY36-3C has the genotype MATa, chs1-23, chs2::LEU2, ura3-52, leu2-3,112, trp1-1 and ECY36-3D has the genotype MATa, chs1-23, ca1^R1 (chs3^−), ura3-52, leu2-3,112, trp1-1. Both strains are segregants from crossing strain ECY33-18A (Mata, chs1-23, ca1^R1, ura3-52, leu2-3,112, trp1-1) and ECY19 Δ22 2-5B (MATα, chs1-23, chs2::LEU2, ura3-52, leu2-3,112, trp1-1) using standard methodology. ECY36-3C relies on the expression of chitin synthase isozyme 3 for survival, and ECY36-3D relies on chitin synthase isozyme 2 (Chs2).
(§7) Strains ECY36-3C and ECY36-3D are inoculated in SD medium containing nutritional supplements appropriate to strain growth, e.g., containing about 0.01% (w/v) each of uracil, adenine sulfate, leucine, tryptophan, histidine, and lysine. When the cultures reach stationary phase (typically after 24 hours), they are used immediately or stored at 4° C. for up to a week before use. The cultures are diluted 1/100 into YEPD medium containing 2% agar which has been maintained at ˜50° C., immediately poured into petri dishes, and allowed to cool. Test compounds are applied to cellulose filter disks as described in Example 1 above (e.g., nikkomycin Z, 4 μl of a 5 mg/ml solution), and the disks are applied to the agar. Plates are incubated at 30° C. overnight and growth inhibitory zones are measured around the disks after 24 hours. […]

[6] = tested on: strain ECY36-3D (relies on chitin synthase isozyme 2); experiment: as above; type: cell-based, Saccharomyces cerevisiae; conditions: for growth of strain ECY36-3D (in words): strain producing only Chs2
Description: as §5, §2, §3, §6, §7

[7] = tested on: selected phytopathogenic fungi (Pseudocercosporella herpotrichoides, Rhizoctonia solani, Fusarium oxysporum); experiment: In vitro fungicide discovery screen (growth in nutrient agar); type: cell-based
Description: Standard in vitro and in vivo fungicide discovery screens are employed as tertiary tests to prioritize actives from the calcofluor rescue screen and the secondary screens. […] These include fungi causing wheat eyespot (Pseudocercosporella herpotrichoides), rice sheath blight (Rhizoctonia solani) and damping off (Fusarium oxysporum); all synthesize chitin-containing cell walls. High potency fungicides are active against these species in the 10 ppm range (10 μg/ml), while nikkomycin Z can be detected at ˜70 μg/ml in the calcofluor rescue assay if 30 μl volumes are tested in welled plates.

Chs1 = Chs1 (Saccharomyces cerevisiae, UniProt P08004); conditions: Cabib, Antimicrob. Agents Chemother. 35: 170-173 (1991); cited from earlier work
[8] = filter disk on YEPD agar, 24 hours, total applied: Nikkomycin Z 25 μg, Test Compound 1 45 μg, Test Compound 2 200 μg

T1 sequence (P34226 1-693): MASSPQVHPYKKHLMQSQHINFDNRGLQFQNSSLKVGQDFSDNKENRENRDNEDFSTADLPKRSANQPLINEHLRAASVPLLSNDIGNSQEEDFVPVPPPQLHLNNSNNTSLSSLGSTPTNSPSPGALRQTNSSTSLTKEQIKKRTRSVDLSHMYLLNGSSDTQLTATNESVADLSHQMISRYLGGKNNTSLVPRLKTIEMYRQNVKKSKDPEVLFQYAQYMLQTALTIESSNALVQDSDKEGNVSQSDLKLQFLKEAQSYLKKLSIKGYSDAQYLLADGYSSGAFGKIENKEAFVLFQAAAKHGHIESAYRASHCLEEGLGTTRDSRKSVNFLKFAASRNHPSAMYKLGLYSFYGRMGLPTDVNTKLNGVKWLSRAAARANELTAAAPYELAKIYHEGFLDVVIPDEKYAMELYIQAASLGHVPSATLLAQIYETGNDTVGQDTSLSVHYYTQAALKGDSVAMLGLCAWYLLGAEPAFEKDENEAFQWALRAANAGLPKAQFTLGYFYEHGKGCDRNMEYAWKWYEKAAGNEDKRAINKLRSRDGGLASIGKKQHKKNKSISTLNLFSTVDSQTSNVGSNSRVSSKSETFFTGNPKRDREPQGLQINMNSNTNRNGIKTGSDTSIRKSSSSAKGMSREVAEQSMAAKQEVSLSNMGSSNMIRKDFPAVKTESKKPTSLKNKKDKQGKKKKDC
T1 sequence (P29465 whole entry): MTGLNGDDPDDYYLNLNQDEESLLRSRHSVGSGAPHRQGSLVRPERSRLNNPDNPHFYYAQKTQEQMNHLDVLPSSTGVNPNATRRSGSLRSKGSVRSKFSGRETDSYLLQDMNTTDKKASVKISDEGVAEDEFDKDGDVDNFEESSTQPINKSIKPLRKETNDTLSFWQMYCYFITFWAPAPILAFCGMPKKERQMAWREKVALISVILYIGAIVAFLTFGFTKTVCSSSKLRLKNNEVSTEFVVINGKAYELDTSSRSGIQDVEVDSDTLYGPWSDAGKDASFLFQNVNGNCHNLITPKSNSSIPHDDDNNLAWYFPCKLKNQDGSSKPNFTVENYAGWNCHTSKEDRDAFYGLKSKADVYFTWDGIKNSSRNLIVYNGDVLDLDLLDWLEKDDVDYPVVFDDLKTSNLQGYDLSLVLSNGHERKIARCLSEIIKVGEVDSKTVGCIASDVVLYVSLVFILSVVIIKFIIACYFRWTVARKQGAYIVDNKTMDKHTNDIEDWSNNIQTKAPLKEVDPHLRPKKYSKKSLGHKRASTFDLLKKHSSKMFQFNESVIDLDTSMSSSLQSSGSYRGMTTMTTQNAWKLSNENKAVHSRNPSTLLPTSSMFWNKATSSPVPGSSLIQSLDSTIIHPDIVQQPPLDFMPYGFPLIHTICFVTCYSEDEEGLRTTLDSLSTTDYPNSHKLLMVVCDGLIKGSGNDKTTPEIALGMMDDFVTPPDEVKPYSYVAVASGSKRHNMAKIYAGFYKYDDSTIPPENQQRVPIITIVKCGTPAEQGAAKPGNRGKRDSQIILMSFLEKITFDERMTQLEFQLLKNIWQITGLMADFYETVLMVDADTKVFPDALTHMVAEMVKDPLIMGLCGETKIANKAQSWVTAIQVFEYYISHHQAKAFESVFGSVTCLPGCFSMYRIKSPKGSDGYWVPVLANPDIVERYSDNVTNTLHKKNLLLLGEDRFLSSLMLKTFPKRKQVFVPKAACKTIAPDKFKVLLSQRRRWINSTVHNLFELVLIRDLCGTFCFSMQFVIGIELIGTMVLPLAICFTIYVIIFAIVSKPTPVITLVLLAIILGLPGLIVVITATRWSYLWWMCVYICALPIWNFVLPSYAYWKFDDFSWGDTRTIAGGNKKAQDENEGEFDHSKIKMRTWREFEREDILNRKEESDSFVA
Sequence of Chs1 (P08004 whole entry): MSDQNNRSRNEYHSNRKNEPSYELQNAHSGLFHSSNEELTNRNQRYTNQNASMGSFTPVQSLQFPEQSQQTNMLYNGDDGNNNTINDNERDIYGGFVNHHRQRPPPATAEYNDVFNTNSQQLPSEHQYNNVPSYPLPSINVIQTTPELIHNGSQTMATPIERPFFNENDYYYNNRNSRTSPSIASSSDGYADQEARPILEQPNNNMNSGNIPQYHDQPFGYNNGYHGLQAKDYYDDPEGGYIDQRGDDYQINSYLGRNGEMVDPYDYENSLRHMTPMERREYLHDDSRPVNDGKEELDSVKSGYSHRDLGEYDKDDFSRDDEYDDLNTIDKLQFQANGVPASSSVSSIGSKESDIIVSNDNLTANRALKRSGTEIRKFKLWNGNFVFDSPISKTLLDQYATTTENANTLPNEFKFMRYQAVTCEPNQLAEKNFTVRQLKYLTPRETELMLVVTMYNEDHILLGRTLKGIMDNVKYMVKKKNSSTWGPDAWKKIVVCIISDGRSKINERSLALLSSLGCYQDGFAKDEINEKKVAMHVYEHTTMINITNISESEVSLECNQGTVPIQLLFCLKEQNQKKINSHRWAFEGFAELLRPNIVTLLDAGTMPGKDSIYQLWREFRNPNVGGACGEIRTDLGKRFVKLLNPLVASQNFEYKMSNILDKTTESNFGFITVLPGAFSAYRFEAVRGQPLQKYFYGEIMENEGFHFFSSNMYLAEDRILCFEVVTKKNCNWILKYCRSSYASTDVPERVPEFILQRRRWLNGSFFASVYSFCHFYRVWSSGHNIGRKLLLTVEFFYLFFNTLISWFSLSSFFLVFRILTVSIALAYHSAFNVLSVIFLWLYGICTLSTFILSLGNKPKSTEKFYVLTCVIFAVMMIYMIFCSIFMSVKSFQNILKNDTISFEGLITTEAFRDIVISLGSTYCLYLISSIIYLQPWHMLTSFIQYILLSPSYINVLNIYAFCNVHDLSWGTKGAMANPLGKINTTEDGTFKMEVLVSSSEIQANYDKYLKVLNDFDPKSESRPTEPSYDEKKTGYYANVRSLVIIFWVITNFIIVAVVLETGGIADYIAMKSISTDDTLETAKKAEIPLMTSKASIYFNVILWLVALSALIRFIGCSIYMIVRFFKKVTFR

Nc1nc(=O)[nH]cc1F [5-F-cytocine, 5-fluoro-cytosine]
growth in calcofluor culture (Aspergillus nidulans): extensive growth | growth in calcofluor culture (Neurospora crassa): extensive growth

C[C@@H]([C@H](N)C(=O)N[C@H](C(=O)O)[C@H]1O[C@@H](n2ccc(=O)[nH]c2=O)[C@H](O)[C@@H]1O)[C@H](O)c1ccc(O)cn1 [nikkomycin Z]
growth in calcofluor culture (Aspergillus nidulans): extensive growth | growth in calcofluor culture (Neurospora crassa): extensive growth | rescue from calcofluor (Botrytis cinerea): no rescue | rescue from calcofluor [1]: no rescue | growth inhibition of strain S288c (A.T.C.C. strain S288c): no inhibition | % Chs3 Activity (Chs3; 1 μM inhibitor): ˜80% | % Chs3 Activity (Chs3; 2.5 μM inhibitor): ˜55% | % Chs3 Activity (Chs3; 5 μM inhibitor): ˜41% | chitin synthase isozyme affected (Chs3; secondary screening, Chs1, Chs2, Chs3 assays): act preferentially on the Chs3 isozyme | concentration at which detected in the calcofluor rescue assay ([2]; 30 μl volumes tested in welled plates): ~70 µg/mL | activity in the calcofluor rescue screen (turbid zone of growth) [2]: active | growth of strain SSY638-3B (in words) [3]: unaffected | growth of strain SSY640-10A (in words) [4]: inhibited | differential effect on Chs3-only versus Chs2-only strains ([5]; comparison of strain pairs): inhibits Chs3 to a significantly greater extent than Chs2 | zone of inhibition, ECY36-3C [5, 8]: 21 mm | growth of strain ECY36-3C (in words) [5]: inhibited | growth of strain ECY36-3C (in words) ([5]; listed as Nikkomycin Z): inhibit the growth | zone of inhibition, ECY36-3D [6, 8]: 0 mm | growth of strain ECY36-3D (in words) [6]: unaffected | growth of strain ECY36-3D (in words) ([6]; listed as Nikkomycin Z): does not inhibit growth | activity against phytopathogenic fungi ([7]; 25 μg/ml): weakly active | inhibition of Chs1 relative to Chs2 (Chs1): inhibit the activity of Chs1 to a much greater extent than Chs2

NC(=O)OC[C@H](O)[C@@H](O)[C@H](N)C(=O)N[C@H](C(=O)O)[C@H]1O[C@@H](n2cc(C(=O)O)c(=O)[nH]c2=O)[C@H](O)[C@@H]1O [polyoxin D]
growth in calcofluor culture (Aspergillus nidulans): extensive growth | growth in calcofluor culture (Neurospora crassa): extensive growth | rescue from calcofluor (Botrytis cinerea): no rescue | rescue from calcofluor [1]: no rescue | % Chs3 Activity (Chs3; 10 μM inhibitor): 100% | % Chs3 Activity (Chs3; 30 μM inhibitor): ˜40% | % Chs3 Activity (Chs3; 90 μM inhibitor): ˜16% | activity in the calcofluor rescue screen (turbid zone of growth) [2]: inactive | activity against phytopathogenic fungi ([7]; 10 μg/ml concentration range, especially against Rhizoctonia): excellent activity

CCC(CC)Nc1c([N+](=O)[O-])cc(C)c(C)c1[N+](=O)[O-] [prowl]
growth in calcofluor culture (Aspergillus nidulans): extensive growth | growth in calcofluor culture (Neurospora crassa): extensive growth

COC(=O)c1ccccc1S(=O)(=O)NC(=O)Nc1nc(C)cc(C)n1 [sulfometuron methyl]
growth in calcofluor culture (Aspergillus nidulans): extensive growth | growth in calcofluor culture (Neurospora crassa): extensive growth
